Data from US12343371B2, “Method for suppressing or alleviating primary or secondary progressive multiple sclerosis (PPMS or SPMS) using a sustained release depot formulation comprising glatiramer acetate” (MAPI PHARMA LTD., priority 2017, dated 2025).

Tested on: primary progressive EAE (PP-EAE) in C57BL/6 female mice
Experiment: MOG 35-55 induced primary progressive EAE (PP-EAE) in mice: clinical score, body weight, survival
Details: for Body weight compared with untreated control (FIG. 2): P<0.05
[1] = C57BL/6 mice, PP-EAE, GA Depot 4 mg IM Day 0, 1, Copaxone 2 mg SC Days 0-8, N = 20/group, +/- standard error
[2] = C57BL/6 mice, PP-EAE, GA Depot 4 mg IM Day 0, 1, Copaxone 2 mg SC Days 0-8, N = 20/group, +/- standard error, listed as Copaxone®

Procedure: Animals were given food and water ad-libitum throughout the experiment. […] A 21G needle was used for injections in mice. […] Measurements: Body weight was measured every two days from day 0 to day 28. EAE was assessed by clinical scoring of the mice once daily from Day 0 to Day 28 post immunization (Table 2). For analysis, dead animals received clinical score of 5 and the weight recorded at the last measurement before animal death.
The following calculations were derived from clinical score raw data: mean maximum score is the mean of the highest scores noted for each mouse in a specific group up to indicated day of analysis; mean disease duration and mean day of onset were calculated as follows: Mean Disease Duration=Sum of (day of analysis−day of disease onset for each mouse)/(number of mice per group); Mean Day of Onset=(sum of day of disease onset of each mouse)/(number of mice per group). Area under the curve (AUC) of clinical score was calculated using Microsoft Excel and represents disease burden.
Glatiramer Acetate Depot (GA Depot): GA Depot was suspended in water for injection (WFI) and immediately injected intramuscularly (IM) at the indicated dose. Dose of GA Depot are given according to amount of active ingredient (i.e. GA Depot 4 mg contains 4 mg GA).
Statistical analysis: Data was analyzed using Microsoft Excel. Each data set was analyzed using single-factor analysis of variance (ANOVA) followed by one tailed student's T-test.

glatiramer acetate [Copaxone ®] was tested, and the “Survival Rate at Day 28” value (C57BL/6 mice, PP-EAE, GA Depot 4 mg IM Day 0, 1, Copaxone 2 mg SC Days 0-8, N = 20/group) was 90%, the “AUC Clinical Score” value [1] was 26.83 ± 2.49 and the “Mean Day of Onset” value [1] was 12.35 ± 0.23. For the same substance, the “Mean Disease Duration” value [1] was 15.65 ± 0.23, the “AUC Clinical Score” value [2] was “significantly reduced” and the “Mean Day of Onset” value [2] was “significantly reduced”. The “Mean Disease Duration” value [2] was “significantly reduced”, the “Maximum Mean Disease Score” value (C57BL/6 mice, PP-EAE, GA Depot 4 mg IM Day 0, 1, Copaxone 2 mg SC Days 0-8, score 0-5, N = 20/group, +/- standard error) was 2.25 ± 0.22 and the “Body weight compared with untreated control (FIG. 2)” value (day 21) was “significantly higher”. For the same substance, the “Body weight compared with untreated control (FIG. 2)” value (days 10 to 17 following immunization) was “significantly higher” and the “mean clinical score compared with saline group (FIG. 1)” value (days 11-19 and day 20, p<0.05, GA Depot 4 mg, Copaxone 2 mg days 0-8) was “mean clinical score of the saline group was significantly higher”.
